Data reported in patent US7355047B2, “Substituted quinolone carboxylic acids, their derivatives, site of action, and uses thereof” (The Regents of the University of California, priority 2002, dated 2008).

Tests used:
[1] = molecular target: T1, human GABAA receptors containing α2β2γ2 subunits (Homo sapiens, UniProt P18507+P47869+P47870); test: Electrophysiology Assay 2, GABAA subunit transfected HEK cells (α2β2γ2); format: cell-based; settings: expressed human α2β2γ2 receptors; versus diazepam; FIG. 2
T1 construct: expressed in transfected cells; host or cells: HEK cells
Procedure: (§1) GABAA subunit transfected HEK cells are maintained at 37° C. and 5% CO2 using Dulbecco's Modified Eagle's Medium with L-glutamine and no sodium pyruvate (Irvine Scientific #9031, Irvine Calif.) and supplemented with 10% fetal bovine serum (Irvine Scientific #3000), 10 U/ml hygromycin B (Calbiochem #400051), and an antibiotic cocktail consisting of 100 μg/ml streptomycin sulfate, 0.25 μg/ml amphotericin B, 100 units/ml penicillin G (Gibco 15240-096, Gaithersburg Md.). Cells are passed by 2× wash with phosphate buffered saline (PBS) pH 7.4 and lifted using 1× trypsin/EDTA solution in PBS (0.5 mg/ml trypsin, 0.2 mg/ml EDTA, Irvine Scientific #9342) when confluency reaches ˜90%.
(§2) GABAA subunit transfected HEK cells are grown to ˜70% confluency on slide. Cells are transferred to a bath that is continuously perfused with extracellular saline. The extracellular medium contained 145 mM NaCl, 3 mM KCl, 1.5 mM CaCl2, 1 mM MgCl2, 5.5 mM d-glucose, and 10 mM HEPES, pH 7.4 at an osmolarity of 320-330 mosM. Recordings are performed at room temperature using the whole cell patch clamp technique. The patch pipette solution contained 147 mM N-methyl-D-glucamine hydrochloride, 5 mM CsCl, 5 mM K2ATP, 5 mM HEPES, 1 mM MgCl2, 0.1 mM CaCl2, and 1.1 mM EGTA, pH 7.2, at an osmolarity of 315 mosM. Pipette-to-bath resistance is typically 3-5 Mohms. […]

[2] = system: GABAA receptor complex (GRC); test: [35S]TBPS binding dissociation, mouse forebrain; settings: 2 nM [35S]TBPS
[3] = system: 24 hour thirsted rats; test: Vogel Model of Anxiety (Vogel Conflict); format: in vivo, rat; settings: compared with Diazepam (DZP), FIG. 4
Procedure: Adult male rats are randomly divided into groups of 6 rats/group. Animals were deprived of water overnight (24 hr). Food was freely available at time of thirsting. Thirty minutes after injection (i.p.) of test drug, positive control drug (diazepam, 1 mg/kg), or vehicle control rats are placed in a square Plexiglas box containing a stainless steel bottom connected to one side of a drinkometer circuit. At the other side of the drinkometer circuit a water bottle, placed so the drink tube extends into the Plexiglas box, is connected. When a subject drinks from the bottle the circuit is closed and an electric shock is delivered at the tube after seven licks are recorded. The number of licks in a 3 min session is recorded. Anti-anxiety agents will increase the number of shocks the animal is willing to endure to acquire water.

[4] = molecular target: T2, human GABAA receptors containing α1β2γ2 subunits (Homo sapiens, UniProt P14867+P18507+P47870); test: Electrophysiology Assay 2, GABAA subunit transfected HEK cells (α1β2γ2); format: cell-based; settings: expressed human α1β2γ2 receptors; versus diazepam; FIG. 2
T2 construct: expressed in transfected cells; host or cells: HEK cells
Procedure: as §1, §2

[5] = system: Male NSA mice; test: Mouse Light-Dark Transition Model of Anxiety; format: in vivo; settings: compared with Diazepam (DZP), FIG. 3
Procedure: Male NSA mice (25-30 g) are used. The apparatus consists of an open-topped box divided into small and large area by a partition that has a hole at floor level. The small compartment is painted black and the large compartment white. The white compartment was illuminated with light and the black compartment with red light. The time spent in the light versus dark compartments and the number of transitions between compartments is recorded during a 5 min test session. Vehicle or test compounds are administered 30 min prior to the test. Diazepam is administered (i.p.) at 2 mg/kg as the positive control. Anti-anxiety agents will reduce the time the animals will spend in the dark compartment and increase the number of transitions between the two compartments.

[6] = system: BZ receptors; test: [3H]Flunitrazepam binding, rat cortex; settings: 0.2 nM [3H]flunitrazepam, FIG. 6
Procedure: [^3H]Flunitrazepam binding: assays were carried out under identical conditions, using an identical tissue preparation, as those used in the [^35S]TBPS binding assays with the exception that 1 μM GABA was added to all samples instead of 5 μM GABA. [^3H]Flunitrazepam, 0.2 nM (75 Ci/mmol, New England Nuclear, Boston, Mass.) was used to label BZ sites. Non-specific binding is defined as binding in the presence of 1 μM clonazepam. The data were evaluated by nonlinear regression to obtain IC50 and EC50 values.

[7] = system: GABAA receptor; test: [3H]Muscimol binding assay, rat cortex; settings: 5 nM [3H]muscimol, FIG. 7
Procedure: [^3H]Muscimol binding assay: The cortex from male Sprague-Dawley rats (160-200 g) was removed immediately after euthanizing and dissected over ice. The tissue was homogenized in 15 vol of 0.32M sucrose followed by centrifugation for 10 min at 1000× g. The supernatant was transferred to a 38 mL polycarbonate tube (Beckman Instruments, Palo Alto Calif.) and centrifuged at 20,000× g for 20 min. The membrane pellet was resuspended in 10 vol of dH2O and centrifuged at 8,000× g for 20 min. The resulting pellet was washed with dH2O once and with Na^+-free assay buffer (40 mM KH2PO4, 100 mM KCl, pH 7.4). The pellet was resuspended in 35 mL of Na^+-free assay buffer, incubated at 37° C. for thirty minutes and then centrifuged 31,000× g for twenty minutes. The final pellet was resuspended in 10 vol of Na^+-free assay buffer. Protein concentration of membrane preparations was ˜1 mg/mL by BCA reagent protein assay. Aliquots of membrane suspension (100 μL) were incubated in Na^+-free assay buffer with 5 nM [^3H]muscimol (25 Ci/mmol, New England Nuclear, Boston, Mass.) and 5 μL of dimethylsulfoxide (DMSO) or drug dissolved in DMSO. The final volume of the incubation medium was 1 mL. […] Filter-bound radioactivity was quantified by LSC after an overnight extraction. The data were evaluated by nonlinear regression to obtain IC50 and EC50 values.

[8] = system: GABAA receptor complex (GRC); test: [35S]TBPS binding, rat cerebellum; settings: 2 nM [35S]TBPS, 30 μM furosemide, FIG. 14

T2 sequence (P14867 28-456): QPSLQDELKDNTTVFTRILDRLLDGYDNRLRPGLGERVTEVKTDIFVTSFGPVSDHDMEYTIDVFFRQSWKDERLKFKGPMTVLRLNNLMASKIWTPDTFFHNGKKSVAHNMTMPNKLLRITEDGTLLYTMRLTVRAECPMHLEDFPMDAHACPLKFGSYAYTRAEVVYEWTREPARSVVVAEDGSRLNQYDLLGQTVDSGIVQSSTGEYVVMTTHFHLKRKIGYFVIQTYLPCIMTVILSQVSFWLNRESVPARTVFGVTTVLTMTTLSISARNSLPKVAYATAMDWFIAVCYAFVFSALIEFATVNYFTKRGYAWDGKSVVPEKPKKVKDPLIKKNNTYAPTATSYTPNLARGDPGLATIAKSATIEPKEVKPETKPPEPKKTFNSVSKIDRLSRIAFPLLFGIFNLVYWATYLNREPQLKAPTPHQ
T2 sequence (P47870 25-512 limits assumed): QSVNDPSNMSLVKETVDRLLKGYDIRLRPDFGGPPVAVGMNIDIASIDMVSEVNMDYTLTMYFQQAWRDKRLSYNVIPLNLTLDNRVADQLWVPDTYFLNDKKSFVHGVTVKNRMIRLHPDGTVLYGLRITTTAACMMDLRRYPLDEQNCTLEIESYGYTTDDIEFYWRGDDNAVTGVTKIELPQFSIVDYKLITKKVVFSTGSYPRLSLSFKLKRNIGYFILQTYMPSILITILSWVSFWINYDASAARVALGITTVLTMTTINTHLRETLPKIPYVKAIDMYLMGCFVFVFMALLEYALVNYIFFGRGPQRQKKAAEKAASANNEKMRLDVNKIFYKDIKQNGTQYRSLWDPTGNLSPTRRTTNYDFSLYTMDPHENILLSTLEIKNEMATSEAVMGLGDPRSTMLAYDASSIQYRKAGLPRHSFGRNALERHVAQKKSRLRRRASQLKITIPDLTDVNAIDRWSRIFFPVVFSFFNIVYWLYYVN
T2 sequence (P18507 40-475): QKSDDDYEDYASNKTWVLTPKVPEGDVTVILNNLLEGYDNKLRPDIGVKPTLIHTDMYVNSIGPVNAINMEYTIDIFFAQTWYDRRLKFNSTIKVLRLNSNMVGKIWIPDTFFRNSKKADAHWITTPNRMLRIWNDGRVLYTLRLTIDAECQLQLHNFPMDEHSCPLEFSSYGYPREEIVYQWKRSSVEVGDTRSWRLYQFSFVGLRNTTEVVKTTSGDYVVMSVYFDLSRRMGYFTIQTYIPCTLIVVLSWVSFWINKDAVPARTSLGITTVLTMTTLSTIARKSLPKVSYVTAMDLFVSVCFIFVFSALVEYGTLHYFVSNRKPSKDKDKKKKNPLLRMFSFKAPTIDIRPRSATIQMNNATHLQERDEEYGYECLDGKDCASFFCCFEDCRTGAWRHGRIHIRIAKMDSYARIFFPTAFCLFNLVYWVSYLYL
T1 sequence (P47869 29-451): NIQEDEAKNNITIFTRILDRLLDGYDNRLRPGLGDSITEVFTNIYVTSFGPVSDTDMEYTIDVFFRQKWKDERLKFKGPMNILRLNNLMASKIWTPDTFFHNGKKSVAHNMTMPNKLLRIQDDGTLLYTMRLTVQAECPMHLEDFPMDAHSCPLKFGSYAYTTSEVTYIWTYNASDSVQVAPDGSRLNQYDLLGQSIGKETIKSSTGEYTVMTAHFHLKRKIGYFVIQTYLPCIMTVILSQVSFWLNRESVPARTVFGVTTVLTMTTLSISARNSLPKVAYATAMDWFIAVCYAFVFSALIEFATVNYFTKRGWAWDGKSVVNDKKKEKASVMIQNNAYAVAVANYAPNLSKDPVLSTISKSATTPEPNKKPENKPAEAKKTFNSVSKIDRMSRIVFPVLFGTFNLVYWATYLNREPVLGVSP
T1 sequence (P47870 25-512 limits assumed): as the sequence (P47870 25-512 limits assumed) above
T1 sequence (P18507 40-475): as the sequence (P18507 40-475) above

For `CCn1cc(C(=O)O)c(=O)c2cc(NC3CCCc4ccccc43)c(Cl)cc21` (stereo not drawn) [compound 3, 7-chloro-1-ethyl-6-(1,2,3,4-tetrahydronaphthyl-1-amino)-4-oxo-1,4-dihydroquinoline-3-carboxylic acid], the “efficacy on GABA induced currents (IGABA)” value [1] was “dose-dependent positive efficacy”, the “dissociation of [35S]TBPS binding in absence or presence of ivermectin” value ([2]; initiated by 10 μM compound 3, 10 μM ivermectin, FIG. 12) was “do not share a common site of action” and the “dissociation of [35S]TBPS binding in absence or presence of mefenamic acid” value ([2]; initiated by 10 μM compound 3, 10 μM mefenamic acid, FIG. 13) was “do not share a common site of action”. The “anti-anxiety effects, punished responding (number of licks during a 3 minute period)” value [3] was “comparable to that of DZP”, the “efficacy on GABA induced currents (IGABA)” value [4] was “dose-dependent positive efficacy” and the “anti-anxiety effects, time spent in the dark” value [5] was “comparable to that of DZP”. For the same molecule, the “effect on [3H]flunitrazepam binding to BZ receptors” value [6] was “allosterically coupled to and does not act directly on the BZ receptor”, the “effect on [3H]muscimol binding to the GABAA receptor” value [7] was “does not act directly on the GABAA receptor” and the “effect on [35S]TBPS binding in absence or presence of furosemide” value [8] was “does not act directly at the same site on the GRC as the loop-diuretic furosemide”.
